Assay results taken from US9815839B2, “N-(1-(substituted-phenyl)ethyl)-9H-purin-6-amines as PI3K inhibitors” (Incyte Corporation, priority 2010, dated 2017).
Where a name gives a salt, the structure may show the parent alone.

target: T1, PI3Kδ (p110δ/p85α) (Homo sapiens, UniProt O00329); assay: PI3Kδ scintillation proximity assay; assay type: biochemical; conditions: 20 μM ATP, 4 nM PI3Kδ
T1 construct: purchased Millipore (Bedford, Mass.)
Description: Example A: PI3Kδ Scintillation Proximity Assay
Materials: [γ-^33P]ATP (10 mCi/mL) was purchased from Perkin-Elmer (Waltham, Mass.). Lipid kinase substrate, D-myo-Phosphatidylinositol 4,5-bisphosphate (PtdIns(4,5)P2)D (+)-sn-1,2-di-O-octanoylglyceryl, 3-O-phospho linked (PIP2), CAS 204858-53-7, was purchased from Echelon Biosciences (Salt Lake City, Utah). PI3Kδ (p110δ/p85α) was purchased from Millipore (Bedford, Mass.). ATP, MgCl2, DTT, EDTA, MOPS and CHAPS were purchased from Sigma-Aldrich (St. Louis, Mo.). Wheat Germ Agglutinin (WGA) YSi SPA Scintillation Beads was purchased from GE healthcare life sciences (Piscataway, N.J.).
The kinase reaction was conducted in polystyrene 384-well matrix white plate from Thermo Fisher Scientific in a final volume of 25 μL. Inhibitors were first diluted serially in DMSO and added to the plate wells before the addition of other reaction components. The final concentration of DMSO in the assay was 0.5%. The PI3K assays were carried out at room temperature in 20 mM MOPS, pH 6.7, 10 mM MgCl2, 5 mM DTT and CHAPS 0.03%. Reactions were initiated by the addition of ATP, the final reaction mixture consisted of 20 μM PIP2,20 μM ATP, 0.2 μCi [γ-^33P] ATP, 4 nM PI3Kδ. Reactions were incubated for 210 minutes and terminated by the addition of 40 μL SPA beads suspended in quench buffer: 150 mM potassium phosphate pH 8.0, 20% glycerol. 25 mM EDTA, 400 µM ATP. The final concentration of SPA beads is 1.0 mg/mL. After the plate sealing, plates were shaken overnight at room temperature and centrifuged at 1800 rpm for 10 minutes, the radioactivity of the product was determined by scintillation counting on Topcount (Perkin-Elmer). IC50 determination was performed by fitting the curve of percent control activity versus the log of the inhibitor concentration using the GraphPad Prism 3.0 software.

T1 sequence (O00329 whole entry, species assumed): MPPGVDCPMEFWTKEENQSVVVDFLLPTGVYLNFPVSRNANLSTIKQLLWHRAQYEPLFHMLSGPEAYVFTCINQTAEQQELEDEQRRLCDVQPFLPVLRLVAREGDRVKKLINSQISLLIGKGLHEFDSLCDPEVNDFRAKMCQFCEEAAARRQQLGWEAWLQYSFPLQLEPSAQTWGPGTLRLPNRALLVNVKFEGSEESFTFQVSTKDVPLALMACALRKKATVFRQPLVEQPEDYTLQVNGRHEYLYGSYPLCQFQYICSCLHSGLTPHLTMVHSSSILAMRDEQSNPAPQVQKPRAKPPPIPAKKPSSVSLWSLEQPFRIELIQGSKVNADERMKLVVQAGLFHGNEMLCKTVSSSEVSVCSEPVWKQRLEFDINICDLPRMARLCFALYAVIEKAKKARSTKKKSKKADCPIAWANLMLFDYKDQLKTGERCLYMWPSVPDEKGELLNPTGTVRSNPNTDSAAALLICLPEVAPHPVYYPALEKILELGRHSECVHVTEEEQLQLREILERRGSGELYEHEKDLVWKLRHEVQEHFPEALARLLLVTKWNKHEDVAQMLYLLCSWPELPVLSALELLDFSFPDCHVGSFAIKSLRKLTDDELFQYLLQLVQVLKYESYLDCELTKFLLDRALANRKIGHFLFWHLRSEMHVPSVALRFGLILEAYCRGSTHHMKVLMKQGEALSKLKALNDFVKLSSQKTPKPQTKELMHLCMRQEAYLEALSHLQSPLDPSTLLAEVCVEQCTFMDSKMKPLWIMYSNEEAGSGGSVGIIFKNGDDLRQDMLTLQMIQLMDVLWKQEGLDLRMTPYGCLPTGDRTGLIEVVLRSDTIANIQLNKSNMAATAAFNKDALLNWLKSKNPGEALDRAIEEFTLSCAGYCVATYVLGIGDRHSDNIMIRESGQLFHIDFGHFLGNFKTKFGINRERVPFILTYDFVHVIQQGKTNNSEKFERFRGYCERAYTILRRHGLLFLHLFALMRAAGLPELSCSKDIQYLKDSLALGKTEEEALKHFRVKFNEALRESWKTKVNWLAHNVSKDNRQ
T1 sequence (P27986 whole entry partner, species assumed): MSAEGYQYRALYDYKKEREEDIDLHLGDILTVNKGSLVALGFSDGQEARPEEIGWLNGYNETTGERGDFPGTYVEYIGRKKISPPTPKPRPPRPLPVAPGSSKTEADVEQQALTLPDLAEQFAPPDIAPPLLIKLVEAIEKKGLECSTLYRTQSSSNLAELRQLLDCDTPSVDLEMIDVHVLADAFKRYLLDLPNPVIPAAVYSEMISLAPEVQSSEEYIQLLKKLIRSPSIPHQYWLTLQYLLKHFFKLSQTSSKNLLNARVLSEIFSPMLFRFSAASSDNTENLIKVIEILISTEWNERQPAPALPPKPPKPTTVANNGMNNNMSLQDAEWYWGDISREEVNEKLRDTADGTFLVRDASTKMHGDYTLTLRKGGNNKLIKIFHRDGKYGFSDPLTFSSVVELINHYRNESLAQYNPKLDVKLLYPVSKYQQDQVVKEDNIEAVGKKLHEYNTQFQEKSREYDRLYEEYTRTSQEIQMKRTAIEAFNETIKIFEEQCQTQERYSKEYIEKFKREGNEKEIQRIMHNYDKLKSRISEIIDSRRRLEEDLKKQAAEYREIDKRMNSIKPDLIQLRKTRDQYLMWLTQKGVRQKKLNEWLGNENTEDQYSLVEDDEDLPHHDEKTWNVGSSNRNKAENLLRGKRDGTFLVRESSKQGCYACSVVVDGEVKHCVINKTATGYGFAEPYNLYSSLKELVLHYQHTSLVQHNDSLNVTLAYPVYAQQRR

SMILES | IC50
COc1c(C(C)Nc2ncnc3[nH]cnc23)cc(F)c(C)c1-c1ccc(S(C)(=O)=O)cc1 (stereo not shown) [Example 118, N-{1-[5-Fluoro-2-methoxy-6-methyl-4′-(methylsulfonyl)biphenyl-3-yl]ethyl}-9H-purin-6-amine] | 50 to 100 nM
CNC(=O)c1ccc(-c2cc(Cl)cc(C(C)Nc3ncnc4[nH]cnc34)c2OC)cc1Cl (stereo not shown) [Example 144, 3,5′-dichloro-2′-methoxy-N-methyl-3′-[1-(9H-purin-6-ylamino)ethyl]biphenyl-4-carboxamide] | < 50 nM
CC(=O)Nc1ccc(-c2cc(Cl)cc(C(C)Nc3ncnc4[nH]cnc34)c2-c2cc(F)cc(F)c2)cc1 (stereo not shown) [Example 130, N-{5′-chloro-3″,5″-difluoro-3′-[1-(9H-purin-6-ylamino)ethyl]-1,1′:2′,1″-terphenyl-4-yl}acetamide] | < 50 nM
COc1c(C(C)Nc2ncnc3[nH]cnc23)cc(Cl)c(C)c1-c1ccc(F)c(F)c1 (stereo not shown) [Example 105, N-[1-(5-chloro-3′,4′-difluoro-2-methoxy-6-methylbiphenyl-3-yl)ethyl]-9H-purin-6-amine] | < 50 nM
COc1c(C(C)Nc2ncnc3[nH]cnc23)cc(F)c(C)c1-c1ccnn1C (stereo not shown) [Example 122, N-{1-[5-fluoro-2-methoxy-4-methyl-3-(1-methyl-1H-pyrazol-5-yl)phenyl]ethyl}-9H-purin-6-amine] | 250 to 500 nM
COc1c(C(C)Nc2ncnc3[nH]cnc23)cc(Cl)c(C)c1-c1ccc(C(N)=O)c(F)c1 (stereo not shown) [Example 62, 3′-Chloro-3-fluoro-6′-methoxy-2′-methyl-5′-[1-(9H-purin-6-ylamino)ethyl]biphenyl-4-carboxamide] | < 50 nM
COc1cncc(-c2cc(Cl)cc(C(C)Nc3ncnc4[nH]cnc34)c2OC)c1 (stereo not shown) [Example 146, N-{1-[5-chloro-2-methoxy-3-(5-methoxy-pyridin-3-yl)phenyl]ethyl}-9H-purin-6-amine] | 50 to 100 nM
Cc1c(Cl)cc(C(C)Nc2ncnc3[nH]cnc23)c(OCCN2CCOCC2)c1-c1cncc(Cl)c1 (stereo not shown) [Example 151, N-{1-[5-chloro-3-(5-chloro-pyridin-3-yl)-4-methyl-2-(2-morpho-lin-4-yl-ethoxy)-phenyl]-ethyl}-9H-purin-6-amine] | < 50 nM
CC(Nc1ncnc2[nH]cnc12)c1cc(Cl)cc(-c2cnc(N)nc2)c1-c1cc(F)cc(F)c1 (stereo not shown) [Example 135, N-{1-[6-(2-amino-pyrimidin-5-yl)-4-chloro-3′,5′-difluorobiphenyl-2-yl]ethyl}-9H-purin-6-amine] | < 50 nM
COc1c(C(C)Nc2ncnc3[nH]cnc23)cc(Cl)c(C)c1C1CC(=O)N(C)C1 (single isomer, unassigned) [Example 193, 4-{3-chloro-6-methoxy-2-methyl-5-[1-(9H-purin-6-ylamino)ethyl]phenyl}-1-methylpyrrolidin-2-one] | < 50 nM
COc1ncc(-c2cc(Cl)cc(C(C)Nc3ncnc4[nH]cnc34)c2-c2cc(F)cc(F)c2)cn1 (stereo not shown) [Example 129, N-{1-[4-chloro-3′,5′-difluoro-6-(2-methoxy-pyrimidin-5-yl)biphenyl-2-yl]ethyl}-9H-purin-6-amine] | < 50 nM
COc1c(C(C)Nc2ncnc3[nH]cnc23)cc(F)c(C)c1-c1cnc(N)nc1 (stereo not shown) [Example 123, N-{1-[3-(2-aminopyrimidin-5-yl)-5-fluoro-2-methoxy-4-methylphenyl]ethyl}-9H-purin-6-amine] | 50 to 100 nM
COc1c(C(C)Nc2ncnc3[nH]cnc23)cc(Cl)c(C)c1-c1cnn(C2(CC#N)CC(C#N)C2)c1 (single isomer, unassigned) [Example 54, 3-(4-{3-chloro-6-methoxy-2-methyl-5-[1-(9H-purin-6-ylamino)ethyl]phenyl}-1H-pyrazol-1-yl)-3-(cyanomethyl)cyclobutanecarbonitrile] | < 50 nM
COc1c(C(C)Nc2ncnc3[nH]cnc23)cc(Cl)c(C)c1-c1cc(F)cc(Cl)c1 (stereo not shown) [Example 85, N-[1-(3′,5-dichloro-5′-fluoro-2-methoxy-6-methylbiphenyl-3-yl)ethyl]-9H-purin-6-amine] | 250 to 500 nM
COc1c(C(C)Nc2ncnc3[nH]cnc23)cc(Cl)c(C)c1-c1cnn(CC#N)c1 (stereo not shown) [Example 117, (4-{3-Chloro-6-methoxy-2-methyl-5-[1-(9H-purin-6-ylamino)ethyl]phenyl}-1H-pyrazol-1-yl)acetonitrile trifluoroacetate] | < 50 nM
COc1c(C(C)Nc2ncnc3[nH]cnc23)cc(Cl)c(Cl)c1C1CN(C(C)C(F)(F)F)C1 (stereo not shown) [Example 198, N-(1-{4,5-Dichloro-2-methoxy-3-[1-(2,2,2-trifluoro-1-methylethyl)azetidin-3-yl]phenyl}ethyl)-9H-purin-6-amine bistrifluoroacetate] | < 50 nM

SMILES | IC50
COc1c(C(C)Nc2ncnc3[nH]cnc23)cc(Cl)c(Cl)c1C1CN(CC(F)(F)F)C1 (stereo not shown) [Example 207, N-(1-{4,5-Dichloro-2-methoxy-3-[1-(2,2,2-trifluoroethyl)azetidin-3-yl]phenyl}ethyl)-9H-purin-6-amine bis(trifluoroacetate)] | < 50 nM
CC(Nc1ncnc2[nH]cnc12)c1cc(Cl)cc(-c2cncnc2)c1-c1cc(F)cc(F)c1 (stereo not shown) [Example 132, N-[1-(4-chloro-3′,5′-difluoro-6-pyrimidin-5-ylbiphenyl-2-yl)ethyl]-9H-purin-6-amine] | < 50 nM
COC(=O)N1CC(c2c(C)c(Cl)cc(C(C)Nc3ncnc4[nH]cnc34)c2OC)C1 (stereo not shown) [Example 167, Methyl 3-{3-chloro-6-methoxy-2-methyl-5-[1-(9H-purin-6-ylamino)ethyl]phenyl}azetidine-1-carboxylate trifluoroacetate] | < 50 nM
COc1c(-c2ccc(F)nc2)cc(Cl)cc1C(C)Nc1ncnc2[nH]cnc12 (stereo not shown) [Example 147, N-{1-[5-chloro-3-(6-fluoropyridin-3-yl)-2-methoxyphenyl]-ethyl}-9H-purin-6-amine] | < 50 nM
CCC(Nc1ncnc2[nH]cnc12)c1cc(Cl)c(C)c(-c2cncc(F)c2)c1OC (stereo not shown) [Example 181, N-{1-[5-chloro-3-(5-fluoropyridin-3-yl)-2-methoxy-4-methylphenyl]propyl}-9H-purin-6-amine bis(2,2,2-trifluoroacetate)] | < 50 nM
COc1c(C(C)Nc2ncnc3[nH]cnc23)cc(Cl)c(C)c1-c1ccnnc1 (stereo not shown) [Example 163, N-[1-(5-Chloro-2-methoxy-4-methyl-3-pyridazin-4-ylphenyl)ethyl]-9H-purin-6-amine bis(trifluoroacetate)] | < 50 nM
COc1c(C(C)Nc2ncnc3[nH]cnc23)cc(Cl)c(Cl)c1C1CN(CC#N)C1 (stereo not shown) [Example 206, (3-{2,3-Dichloro-6-methoxy-5-[1-(9H-purin-6-ylamino)ethyl]phenyl}azetidin-1-yl)acetonitrile bis(trifluoroacetate)] | < 50 nM
COc1cccc(-c2c(C)c(Cl)cc(C(C)Nc3ncnc4[nH]cnc34)c2OC)c1 (stereo not shown) [Example 103] | < 50 nM
COc1c(C(C)Nc2ncnc3[nH]cnc23)cc(Cl)c(C)c1C(O)CN1CCOCC1 (stereo not shown) [Example 190, 1-{3-Chloro-6-methoxy-2-methyl-5-[1-(9H-purin-6-ylamino)ethyl]phenyl}-2-morpholin-4-ylethanol bis(trifluoroacetate)] | < 50 nM
Cc1c(Cl)cc(C(C)Nc2ncnc3[nH]cnc23)c(C)c1-c1ccncc1 (stereo not shown) [Example 127, N-[1-(5-Chloro-2,4-dimethyl-3-pyridin-4-ylphenyl)ethyl]-9H-purin-6-amine] | < 50 nM
COc1c(C(C)Nc2ncnc3[nH]cnc23)cc(Cl)c(C)c1-c1ccc(OC(F)(F)F)cc1 (stereo not shown) [Example 90, N-{1-[5-chloro-2-methoxy-6-methyl-4′-(trifluoromethoxy)biphenyl-3-yl]ethyl}-9H-purin-6-amine] | 250 to 500 nM
COc1cncc(-c2c(C)c(Cl)cc(C(C)Nc3ncnc4[nH]cnc34)c2OC)c1 (single isomer, unassigned) [Example 113, N-{1-[5-Chloro-2-methoxy-3-(5-methoxypyridin-3-yl)-4-methylphenyl]ethyl}-9H-purin-6-amine] | < 50 nM
CCNC(=O)c1ccc(-c2c(C)c(Cl)cc(C(C)Nc3ncnc4[nH]cnc34)c2OC)cc1F (stereo not shown) [Example 64, 3′-chloro-N-ethyl-3-fluoro-6′-methoxy-2′-methyl-5′-[1-(9H-purin-6-ylamino)ethyl]biphenyl-4-carboxamid] | < 50 nM
COc1c(C(C)Nc2ncnc3[nH]cnc23)cc(Cl)c(C)c1-c1cnc(N)nc1 (stereo not shown) [Example 115, N-{1-[3-(2-aminopyrimidin-5-yl)-5-chloro-2-methoxy-4-methylphenyl]ethyl}-9H-purin-6-amine] | < 50 nM
CCOc1c(C(C)Nc2ncnc3[nH]cnc23)cc(Cl)c(C)c1C1CN(C)C1 (stereo not shown) [Example 173, N-{1-[5-chloro-2-ethoxy-4-methyl-3-(1-methylazetidin-3-yl)phenyl]ethyl}-9H-purin-6-amine] | < 50 nM
